Assay results taken from the CheMixHub ionic liquid set.

Test: xn = mol fraction of the nth substance listed

CCCCCCCCCCCCCCCC[N+](C)(C)C.[Br-] + O=C[C@H](O)[C@@H](O)[C@H](O)[C@H](O)CO + O
viscosity [mPa·s], 100 kPa
Settings | 298.15 K | 308.15 K | 318.15 K
x2 = 0, x1 = 7.21e-06 | 0.896 | 0.742 | 0.617
x2 = 0, x1 = 1.442e-05 | 0.898 | 0.744 | 0.617
x2 = 0, x1 = 2.162e-05 | 0.9 | 0.745 | 0.617
x2 = 0.0008068, x1 = 7.2e-06 | 0.918 | 0.76 | –
x2 = 0.000976, x1 = 1.44e-05 | 0.926 | – | 0.635
x2 = 0.0009851, x1 = 2.16e-05 | – | 0.768 | 0.636
x2 = 0.00106, x1 = 7.2e-06 | – | – | 0.636
x2 = 0.001255, x1 = 2.16e-05 | – | 0.774 | 0.641
x2 = 0.001314, x1 = 1.44e-05 | – | 0.774 | –
x2 = 0.001569, x1 = 7.2e-06 | 0.939 | 0.777 | 0.645
x2 = 0.001577, x1 = 2.159e-05 | 0.946 | 0.782 | 0.647
x2 = 0.001582, x1 = 1.439e-05 | 0.943 | – | 0.647
x2 = 0.001962, x1 = 7.19e-06 | 0.949 | – | –
x2 = 0.001965, x1 = 2.158e-05 | 0.957 | 0.791 | 0.655
x2 = 0.00197, x1 = 1.439e-05 | 0.955 | – | 0.654
x2 = 0.002321, x1 = 7.19e-06 | – | 0.793 | 0.659
x2 = 0.00235, x1 = 1.438e-05 | – | 0.798 | –
x2 = 0.002365, x1 = 2.157e-05 | 0.968 | 0.8 | 0.662
x2 = 0.002661, x1 = 1.438e-05 | 0.974 | 0.805 | 0.667
x2 = 0.002693, x1 = 2.157e-05 | 0.978 | 0.808 | 0.669
x2 = 0.0027, x1 = 7.19e-06 | 0.969 | 0.802 | –

CC[n+]1ccn(C)c1.N#C[S-] + CO
100 kPa
Settings | electrical conductivity [S/m] | viscosity [mPa·s]
298.15 K, x1 = 0.5972 | 2.07 | 12.8
303.15 K, x1 = 0.3859 | 2.58 | 7
303.15 K, x1 = 1 | – | 20
308.15 K, x1 = 0.0988 | 2.57 | 1.9
308.15 K, x1 = 0.5006 | 2.65 | 7.9
308.15 K, x1 = 1 | 2.27 | 18
323.15 K, x1 = 0.1966 | – | 2.2
323.15 K, x1 = 0.3005 | 3.7 | 3.2
323.15 K, x1 = 0.804 | 3.13 | 9.1
323.15 K, x1 = 0.8997 | 3.08 | 10.4
323.15 K, x1 = 1 | 3.05 | 12

CCCCCC(=O)O.CCCCCC(=O)[O-].CC[NH+](CC)CCO + CCCC[n+]1ccn(C)c1.COP(=O)([O-])OC
101 kPa
Settings | viscosity [mPa·s]
278.15 K, x1 = 0.2213 | 768
278.15 K, x1 = 0.6088 | 295.3
283.15 K, x1 = 0.0684 | 1280
283.15 K, x1 = 0.4995 | 242.5
283.15 K, x1 = 0.7258 | 185.3
288.15 K, x1 = 0.2213 | 362
288.15 K, x1 = 0.3088 | 259.7
288.15 K, x1 = 1 | 100.1
293.15 K, x1 = 0.4995 | 130.7
293.15 K, x1 = 0.8535 | 90.5
298.15 K, x1 = 0.2213 | 190.1
298.15 K, x1 = 0.3088 | 140.8
303.15 K, x1 = 0.2213 | 142.4
303.15 K, x1 = 0.6088 | 68.7
303.15 K, x1 = 1 | 47.5
308.15 K, x1 = 0.1429 | 147.9
313.15 K, x1 = 0.0684 | 157
313.15 K, x1 = 0.3088 | 65.2
318.15 K, x1 = 0.3966 | 43.87
318.15 K, x1 = 0.8535 | 29.04
323.15 K, x1 = 0.3966 | 35.8
328.15 K, x1 = 0.4995 | 26.14
328.15 K, x1 = 1 | 17.75
338.15 K, x1 = 0.0684 | 48.21
338.15 K, x1 = 0.2213 | 30.03
338.15 K, x1 = 1 | 12.81
343.15 K, x1 = 0.0684 | 39.73
343.15 K, x1 = 0.2213 | 25.3
343.15 K, x1 = 0.3088 | 20.61
348.15 K, x1 = 1 | 9.52
353.15 K, x1 = 0.2213 | 18.5
353.15 K, x1 = 0.4995 | 11.83
353.15 K, x1 = 0.7258 | 10.11
353.15 K, x1 = 1 | 8.28
358.15 K, x1 = 0.2213 | 16.02
358.15 K, x1 = 1 | 7.24
368.15 K, x1 = 0.3966 | 9.02
373.15 K, x1 = 0.2213 | 10.88

Cc1ccccc1 + CCCCCC[N+]1(C)CCCC1.O=S(=O)([N-]S(=O)(=O)C(F)(F)F)C(F)(F)F
Settings | viscosity [mPa·s]
308.15 K, 100 kPa, x1 = 1 | 0.509

CC(=O)[O-].[NH4+] + CC(=O)[O-].CC[n+]1ccn(C)c1
101 kPa
Settings | electrical conductivity [S/m] | viscosity [mPa·s]
298.15 K, x1 = 0.4491 | 0.0734 | 1020
308.15 K, x1 = 0.328 | 0.215 | 273
308.15 K, x1 = 0.4491 | 0.148 | 458
313.15 K, x1 = 0.0999 | 0.494 | 76.2
313.15 K, x1 = 0.1703 | 0.41 | 101.3
313.15 K, x1 = 0.328 | 0.286 | 197
318.15 K, x1 = 0.2498 | 0.449 | 106.6
318.15 K, x1 = 0.328 | 0.371 | 144.6

CCCC[n+]1ccccc1.N#C[N-]C#N + CC1COC(=O)O1
101 kPa
Settings | electrical conductivity [S/m] | viscosity [mPa·s]
288.15 K, x1 = 0.1003 | 0.537 | 4.857
293.15 K, x1 = 0.4997 | 1.69 | 14.49
298.15 K, x1 = 0.3005 | 1.76 | 6.995
298.15 K, x1 = 0.7011 | 2.05 | 19.85
298.15 K, x1 = 0.7885 | 2.28 | 24.95
303.15 K, x1 = 0.3005 | 1.98 | 6.097
303.15 K, x1 = 0.6002 | 2.338 | 13.28
308.15 K, x1 = 0.1003 | 1.38 | 3.024
308.15 K, x1 = 0.3005 | 2.227 | 5.372
308.15 K, x1 = 0.7011 | 2.55 | 14.09
313.15 K, x1 = 0.1003 | 1.6 | 2.75
313.15 K, x1 = 0.3005 | 2.49 | 4.766
318.15 K, x1 = 0.1003 | 1.77 | 2.498
318.15 K, x1 = 0.7011 | 3.09 | 10.47
323.15 K, x1 = 0.197 | 2.44 | 3.04
323.15 K, x1 = 0.3005 | 3.038 | 3.842
323.15 K, x1 = 0.7011 | 3.432 | 9.16
323.15 K, x1 = 0.7885 | 3.732 | 10.85
328.15 K, x1 = 0.6002 | 3.724 | 6.707
328.15 K, x1 = 1 | 3.2 | 12.59
333.15 K, x1 = 0.197 | 2.94 | 2.58
333.15 K, x1 = 0.3005 | 3.66 | 3.172
333.15 K, x1 = 0.7011 | 4.16 | 7.185
333.15 K, x1 = 1 | 3.49 | 11.08
338.15 K, x1 = 0.197 | 3.17 | 2.394
343.15 K, x1 = 0.7011 | 4.98 | 5.796
343.15 K, x1 = 0.9008 | 5.122 | 7.641
348.15 K, x1 = 0.3005 | 4.732 | 2.474
348.15 K, x1 = 0.7011 | 5.416 | 5.253
353.15 K, x1 = 0.4003 | 5.33 | 2.965

CCCCCCCCCCCCOS(=O)(=O)[O-].[Na+] + CCO + O
298 K, 100 kPa, frequency 0.001 MHz
Settings | electrical conductivity [S/m]
x2 = 0.02563, x3 = 0.9741 | 0.0809
x2 = 0.06861, x3 = 0.9309 | 0.103
x2 = 0.06862, x3 = 0.9311 | 0.0828

CCCCCC[n+]1ccccc1.O=[N+]([O-])[O-] + O
298.15 K, 101 kPa
Settings | viscosity [mPa·s]
x1 = 0.0002072 | 0.9698
x1 = 0.0003855 | 1.002
x1 = 0.0005691 | 1.012
x1 = 0.0007311 | 1.033
x1 = 0.0009416 | 1.045
x1 = 0.001112 | 1.058
x1 = 0.001262 | 1.069
x1 = 0.00145 | 1.101
x1 = 0.001634 | 1.107
x1 = 0.001826 | 1.122
x1 = 0.003609 | 1.219
x1 = 0.005402 | 1.312
x1 = 0.007153 | 1.39
x1 = 0.008806 | 1.453
x1 = 0.01076 | 1.515
x1 = 0.01248 | 1.581
x1 = 0.01427 | 1.646
x1 = 0.01599 | 1.702
x1 = 0.01772 | 1.758

C[N+]1(CCOCCOCC[N+]2(C)CCCC2)CCCC1.N#C[N-]C#N.N#C[N-]C#N + CC[n+]1ccn(C)c1.O=S(=O)([N-]S(=O)(=O)C(F)(F)F)C(F)(F)F + O=S(=O)([N-]S(=O)(=O)C(F)(F)F)C(F)(F)F.[Li+]
100 kPa, x1 = 0.4178, x2 = 0.4469
Settings | electrical conductivity [S/m]
298 K | 0.244
303 K | 0.317
313 K | 0.431
323 K | 0.64
333 K | 0.832
343 K | 1.1
